Active and inactive are the calls of the source. The calls are words filed in the database; no cut-off is given here.
Tests used:
Staphylococcus aureus [1] = test: Antibacterial activity against Staphylococcus aureus S25 strain at 1 ug/ml assessed as decrease in number of colony forming units relative to control; type: functional, organism-based; details: dose 1.0 µg/ml
[2] = Inhibition of His-tagged Staphylococcus aureus NADK in presence of glucose-6-phosphate dehydrogenase and NADP measured by spectrophotometry method
NAD kinase 1 = target: T1, NAD kinase 1 (Listeria monocytogenes serovar 1/2a (strain ATCC BAA-679 / EGD-e), UniProt Q8Y8D7); test: Inhibition of His-tagged Listeria monocytogenes NADK1 in presence of glucose-6-phosphate dehydrogenase and NADP measured by spectrophotometry method
T1 sequence (Q8Y8D7 whole entry): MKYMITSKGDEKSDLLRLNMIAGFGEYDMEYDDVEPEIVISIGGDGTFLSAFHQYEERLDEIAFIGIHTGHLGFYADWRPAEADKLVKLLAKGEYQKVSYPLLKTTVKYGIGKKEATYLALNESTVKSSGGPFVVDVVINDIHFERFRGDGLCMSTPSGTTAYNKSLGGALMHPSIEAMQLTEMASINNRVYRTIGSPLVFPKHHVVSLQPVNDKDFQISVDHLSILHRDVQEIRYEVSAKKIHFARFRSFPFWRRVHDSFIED

HeLa = test: Cytotoxicity against human HeLa cells at 10 uM assessed as change in cell shape and multiplication after 96 hrs; type: toxicity, cell-based
Staphylococcus aureus [3] = test: Antibacterial activity against Staphylococcus aureus S25 strain at 10 ug/ml assessed as decrease in number of colony forming units relative to control; type: functional, organism-based; details: dose 10.0 µg/ml
Staphylococcus aureus [4] = test: Antibacterial activity against Staphylococcus aureus S25 strain at 8 ug/ml assessed as decrease in number of colony forming units relative to control; type: functional, organism-based; details: dose 8.0 µg/ml

SMILES	Activity (Staphylococcus aureus [1])	Ki [2] [µM]	Ki (NAD kinase 1) [µM]	Activity (HeLa)	also measured
Nc1ncnc2c1ncn2[C@@H]1O[C@H](COCC#Cc2nc3c(N)ncnc3n2[C@@H]2O[C@H](CO)[C@@H](O)[C@H]2O)[C@@H](O)[C@H]1O	Active	15	20	Non-Toxic	
NC[C@H]1O[C@@H](n2c(SCC(=O)NC[C@H]3O[C@@H](n4cnc5c(N)ncnc54)[C@H](O)[C@@H]3O)nc3c(N)ncnc32)[C@H](O)[C@@H]1O	Active	50	30	Non-Toxic	
Nc1ncnc2c1ncn2[C@@H]1O[C@H](CNCC#Cc2nc3c(N)ncnc3n2[C@@H]2O[C@H](CO)[C@@H](O)[C@H]2O)[C@@H](O)[C@H]1O				Non-Toxic	Activity (Staphylococcus aureus [3]): Active
CN[C@H](CC(C)C)C(=O)N[C@H]1C(=O)N[C@@H](CC(N)=O)C(=O)N[C@H]2C(=O)N[C@H]3C(=O)N[C@H](C(=O)N[C@H](C(=O)O)c4cc(O)cc(O)c4-c4cc3ccc4O)[C@H](O)c3ccc(c(Cl)c3)Oc3cc2cc(c3O[C@@H]2O[C@H](CO)[C@@H](O)[C@H](O)[C@H]2O[C@H]2C[C@](C)(N)[C@H](O)[C@H](C)O2)Oc2ccc(cc2Cl)[C@H]1O					Activity (Staphylococcus aureus [4]): Active
NC[C@H]1O[C@@H](n2c(Br)nc3c(N)ncnc32)[C@H](O)[C@@H]1O					IC50 (NAD kinase 1): 300 µM

Reference: ChEMBL document CHEMBL5050830, “Novel antibacterial compounds” (2013)
